Counter-ions that a name gives are not always drawn.
Assays:
[1] = system: HiBiT-tagged MYB protein in K562 cells; assay: HiBit protein abundance assay, MYB; format: cell-based, human; details: K562 HiBiT-modified cells, 24 hours, luminescence
Procedure: (§1) Compounds described herein were used to screen for effects on quantitative protein abundance using a HiBit assay system (Promega). Quantitative protein abundance was determined by measuring the protein levels of HiBit-tagged protein targets expressed in cell culture via luminescence using the Nano-Glo HiBiT Lytic Detection System, which uses a split complementation assay format to reconstitute NanoBiT enzyme to generate a luminescent signal. A protein abundance assay was developed such that endogenous protein targets could be modified with the HiBiT peptide tag and their abundance could be assessed after compound treatment. Briefly, K562 cell lines containing a HiBiT-modification were treated with various compounds described herein (e.g., compounds of Formulas (I), (II), or (III)). After treatment for 24 hours, the protein abundance of a specific target was determined by measuring luminescence. • Promega Nano-Glo HiBiT Lytic Detection System (cat #N3030) • Corning 384-well TC-treated microplates (cat #3570) • Synthego Engineered Cells Knock-In Clones [table] Cells were maintained in IMDM with 10% FBS. Before the assay, cells were diluted with phenolphthalein-free growth media (IMDM+1% FBS media) and were seeded in a 384-well plate at a density of 10000 cells/well (for each cell line listed in Table 6). Each compound was prepared as a 10-point 3-fold serial dilution in DMSO with the top dose at a final concentration of 10 μM in the well. Unmodified K562 cells were added at the previously specified density with DMSO to serve as an assay baseline and positive control (PC) and DMSO only with the respective modified cell lines was added to the negative control (NC) columns. Final DMSO concentration was kept at or below 0.25%. Treated cell plates were placed in an incubator at 37° C. with 5% CO2 for 24 hours. After 24 hours, 25 μL of Complete HiBit Lytic reagent was added to each well at room temperature (e.g. one plate requiring 10 mL Lytic Buffer, 100 μL LgBiT Protein, 200 μL Lytic Substrate), shaken for 5 minutes at 600 RPM, then left to sit for 10 minutes for signal to stabilize before reading on a Spark Cyto plate reader (Tecan) with a 500 ms measurement time. To determine compound effects on protein abundance of each target in Table 6, the percent response for each respective cell line was calculated at each compound concentration as follows: For the normalized response at each concentration, a four-parameter logistical regression was fit to the data and the response was interpolated at the 50% value to determine a concentration for protein abundance at 50% (IC50) the untreated control.

Target C = assay: HiBit protein abundance assay, Target C; format: cell-based; details: Homo sapiens; K562 HiBiT-modified cells, 24 hours, luminescence
Procedure: as §1, with “Clones” for “Clones [table]”

Row | Compound | IC50 [1] | IC50 (Target C)
1 | Cn1cc2cc(-c3cc(F)c4nn(C5CCNCC5)nc4c3)cc(F)c2n1 [Compound 103, 4-fluoro-6-(7-fluoro-2-methyl-indazol-5-yl)-2-(4-piperidyl) benzotriazole] | 1000 to 10000 nM | 100 to 1000 nM
2 | Cc1c(O)c(-c2ccc3nn(C4CCNCC4)nc3n2)cc2cn(C)nc12 [Compound 113, 2,7-dimethyl-5-[2-(4-piperidyl)triazolo[4,5-b]pyridin-5-yl]indazol-6-ol] | 1000 to 10000 nM | 1000 to 10000 nM
3 | Cc1cc(-n2cc3cc(C4CCNCC4)cc(F)c3n2)cc2cn(C)nc12 [Compound 115, 2-(2,7-dimethylindazol-5-yl)-7-fluoro-5-(4-piperidyl)indazole] | 1000 to 10000 nM | 1000 to 10000 nM
4 | Cc1cc(-n2cc3cc(N4CCNCC4)cc(F)c3n2)cc2cn(C)nc12 [Compound 117, 2-(2,7-dimethylindazol-5-yl)-7-fluoro-5-piperazin-1-yl-indazole] | 1000 to 10000 nM | > 10000 nM
5 | Cc1nc2c(C)cc(-n3cc4cc(N5CCNCC5)cc(F)c4n3)cc2o1 [Compound 119, 6-(7-fluoro-5-piperazin-1-yl-indazol-2-yl)-2,4-dimethyl-1,3-benzoxazole] | 1000 to 10000 nM | > 10000 nM
6 | Cc1cn2nc(-n3cc4cc(C5CCNCC5)cc(F)c4n3)cc(C)c2n1 [Compound 120, 6-[7-fluoro-5-(4-piperidyl)indazol-2-yl]-2,8-dimethyl-imidazo[1,2-b]pyridazine] | 1000 to 10000 nM | > 10000 nM
7 | Cc1cc(-n2cc3cc(N4CCNCC4)ccc3n2)cc2cn(C)nc12 [Compound 121, 2,7-dimethyl-5-(5-piperazin-1-ylindazol-2-yl)indazole] | > 10000 nM | > 10000 nM
8 | Cc1cn2nc(-c3cc(F)c4nn(C5CCNCC5)cc4c3)cc(C)c2n1 [Compound 122, 6-(7-fluoro-2-(piperidin-4-yl)-2H-indazol-5-yl)-2,8-dimethylimidazo [1,2-b]pyridazine hydrochloride salt] | < 100 nM | < 100 nM
9 | Cc1nc2c(C)c(O)c(-c3cc(F)c4nn(C5CCNCC5)cc4c3)cc2o1 [Compound 123, 6-[7-fluoro-2-(4-piperidyl)indazol-5-yl]-2,4-dimethyl-1,3-benzoxazol-5-ol] | 1000 to 10000 nM | 100 to 1000 nM
10 | Cc1c(O)c(-c2cc(F)c3nn(C4CCNCC4)cc3c2)cc2cn(C)nc12 [Compound 126, 5-[7-fluoro-2-(4-piperidyl)indazol-5-yl]-2,7-dimethyl-indazol-6-ol] | > 10000 nM | 1000 to 10000 nM
11 | Cc1cn2cc(-c3cc(F)c4nn(C5CCNCC5)cc4c3)cc(F)c2n1 [Compound 129, 7-fluoro-5-(8-fluoro-2-methylimidazo[1,2-a]pyridin-6-yl)-2-(piperidin-4-yl)-2H-indazole] | 100 to 1000 nM | < 100 nM
12 | Cn1cc2cc(-c3cc(F)c4nn(C5CCNCC5)cc4c3)cc(C#N)c2n1 [Compound 130, 5-[7-fluoro-2-(4-piperidyl)indazol-5-yl]-2-methyl-indazole-7-carbonitrile] | 100 to 1000 nM | < 100 nM
13 | Cc1cn2cc(-c3cc(F)c4nn(C5CCNCC5)cc4c3)nc(C)c2n1 [Compound 132, 6-[7-fluoro-2-(4-piperidyl)indazol-5-yl]-2,8-dimethyl-imidazo[1,2-a]pyrazine] | 1000 to 10000 nM | 100 to 1000 nM
14 | Cc1cc(-c2cc(F)c3nn(C4CCNCC4)cc3c2)cc2cn(C)nc12 [Compound 133, 5-(2,7-dimethylindazol-5-yl)-7-fluoro-2-(4-piperidyl)indazole] | 100 to 1000 nM | < 100 nM
15 | Cc1nc2ccc(-c3cc(F)c4nn(C5CCNCC5)cc4c3)cc2s1 [Compound 134, 6-(7-fluoro-2-(piperidin-4-yl)-2H-indazol-5-yl)-2-methylbenzo[d]thiazole] | 1000 to 10000 nM | 1000 to 10000 nM
16 | Cc1nc2ccc(-c3cc(F)c4nn(C5CCNCC5)cc4c3)cc2o1 [Compound 135, 6-[7-fluoro-2-(4-piperidyl)indazol-5-yl]-2-methyl-1,3-benzoxazole] | 100 to 1000 nM | 100 to 1000 nM
17 | Cc1nc2c(F)cc(-c3cc(F)c4nn(C5CCNCC5)cc4c3)cc2o1 [Compound 136, 4-fluoro-6-[7-fluoro-2-(4-piperidyl)indazol-5-yl]-2-methyl-1,3-benzoxazole] | 100 to 1000 nM | < 100 nM
18 | Cc1nc2c(C)cc(-c3cc(F)c4nn(C5CCNCC5)cc4c3)cc2o1 [Compound 137, 6-[7-fluoro-2-(4-piperidyl)indazol-5-yl]-2,4-dimethyl-1,3-benzoxazole] | 100 to 1000 nM | < 100 nM

Further lines, results first:

Row | IC50 [1] | IC50 (Target C) | Compound
19 | 100 to 1000 nM | 100 to 1000 nM | CCN1CCC(n2cc3cc(-c4cc(F)c5nn(C)cc5c4)cc(F)c3n2)CC1 [Compound 104, 2-(1-ethyl-4-piperidyl)-7-fluoro-5-(7-fluoro-2-methyl-indazol-5-yl)indazole]
20 | 100 to 1000 nM | 100 to 1000 nM | Cn1cc2cc(-c3ccc4nn(C5CCNCC5)cc4c3)cc(F)c2n1 [Compound 105, 7-fluoro-2-methyl-5-[2-(4-piperidyl)indazol-5-yl]indazole]
21 | 100 to 1000 nM | 100 to 1000 nM | Cn1cc2cc(-c3ccc4nn(C5CCNCC5)cc4n3)c(O)c(F)c2n1 [Compound 107, 7-fluoro-2-methyl-5-[2-(4-piperidyl)pyrazolo [4,3-b]pyridin-5-yl]indazol-6-ol]
22 | 100 to 1000 nM | 100 to 1000 nM | Cn1cc2cc(-c3cc(F)c4nn(C5CCNC6(CC6)C5)cc4c3)cc(F)c2n1 (stereo not drawn) [Compound 108, 2-(4-azaspiro[2.5]octan-7-yl)-7-fluoro-5-(7-fluoro-2-methyl-indazol-5-yl)indazole]
23 | 100 to 1000 nM | < 100 nM | Cc1c(O)c(-c2ccc3nn(C4CCNCC4)cc3n2)cc2cn(C)nc12 [Compound 109, 2,7-dimethyl-5-[2-(4-piperidyl)pyrazolo[4,3-b]pyridin-5-yl]indazol-6-ol]
24 | 100 to 1000 nM | 100 to 1000 nM | Cn1cc2cc(-c3ccc4nn(C5CCNCC5)cc4n3)c(O)cc2n1 [Compound 110, 2-methyl-5-[2-(4-piperidyl)pyrazolo[4,3-b]pyridin-5-yl]indazol-6-ol]
25 | 100 to 1000 nM | < 100 nM | Cc1cn2nc(-c3cc(F)c4nn(C5CCNCC5)cc4c3)cc2c(C)n1 [Compound 124, 2-[7-fluoro-2-(4-piperidyl)indazol-5-yl]-4,6-dimethyl-pyrazolo[1,5-a]pyrazine]
26 | 100 to 1000 nM | < 100 nM | Cc1cn2cc(-c3cc(F)c4nn(C5CCNCC5)cc4c3)cc(C)c2n1 [Compound 125, 5-(2,8-dimethylimidazo[1,2-a]pyridin-6-yl)-7-fluoro-2-(4-piperidyl)indazole]
27 | 100 to 1000 nM | < 100 nM | Cc1cn2cc(-c3cc(F)c4nn(C5CCNCC5)cc4c3)cc(Cl)c2n1 [Compound 127, 5-(8-chloro-2-methylimidazo[1,2-a]pyridin-6-yl)-7-fluoro-2-(piperidin-4-yl)-2H-indazole hydrochloride salt]

— patent US20250082633A1, “COMPOUNDS AND METHODS FOR MODULATING SPLICING” (REMIX THERAPEUTICS INC., priority 2021, published 2025)
